Experimental findings from a melting point compilation (Tetko et al.; mined from patent text by program, amines drawn as free bases though some values may be those of a salt) are described below.

Structures are written as SMILES.

Regarding `FC(F)(F)c1ccc(-c2cc(C(F)(F)F)c3ncc(I)n3n2)cc1`, the melting point (usually the temperature of the solid-liquid transition) fell in the range of 123 to 125 °C.

`C[Si](C)(C)CCOc1ccc(N)cn1` registered a melting point of 59 to 61 °C.

In turn, `COc1ccc(N(CC(O)CO)S(=O)(=O)c2c(F)c(F)c(F)c(F)c2F)cc1` (stereo unspecified) showed a melting point of 130 to 131 °C.

As for `Cn1c(=O)c2c(Cl)cccc2n2cnc(C(=O)n3ccnc3)c12`, the melting point was in the range of 242 to 243 °C.

On to `CCOC(=O)N1CCN(C(c2ccccc2)c2ccccc2)CC1(C)Cc1ccc(OC)c(OC)c1` (stereo unspecified), for which the melting point was found to be 101 °C.

The compound `CCOC(=O)c1cnc2c(c(C)nn2-c2ccccc2)c1N(Cc1cccnc1)S(=O)(=O)c1ccc(OC)cc1` registered a melting point of 148 to 150 °C.

`O=S(=O)(CC1CC1)c1nc(-c2ccccn2)c(-c2ccccn2)[nH]1` yielded a melting point of 210 to 212 °C.

`O=C(NCc1cccnc1)Nc1ccc([N+](=O)[O-])cc1` had a melting point of 220 to 222 °C.

The compound `CCCCCCCCOc1ccc(-c2nnc(-c3cc(Cl)ccc3Cl)o2)cc1` gave a melting point of 86 °C.

Consider `Cc1cc(C(=O)c2[nH]c3cc(Cl)ccc3c2N)ccc1Cl`, for which the melting point lay in the range of 142 to 143 °C.

Turning to `Cc1nc(SCc2cnccc2C(=O)O)sc1CC(=O)O`, the melting point lay in the range of 207 to 211 °C.

Consider `COc1cc2c(cc1OC)CN(CC(=O)Nc1ccc([N+](=O)[O-])cc1)CC2`, for which the melting point fell in the range of 173 to 178 °C.

In turn, `COC1(c2cccc(S(=O)(=O)c3ccc4c(ccc(=O)n4C)c3)c2)CCOCC1` yielded a melting point of 204 to 207 °C.

As for `CCOP(=O)(COCC(CO)On1cnc2c(=O)[nH]c(N)nc21)OCC` (stereo unspecified), the melting point was 238 to 240 °C.

Compound `CNC(=O)NCCn1c(-c2ccc(CN3C(C)COCC3C)cc2)csc1=Nc1ccc(F)c(C)c1` (stereo unspecified) yielded a melting point of 116 to 119 °C.

`Cc1[nH]c(=O)c(C#N)cc1-c1ccccc1OCC(=O)O` returned a melting point of 297 to 299 °C.

Turning to `O=C(Nc1ccc2ccc(Oc3ccccc3)nc2n1)c1ccco1`, the melting point worked out at 167 °C.

On to `CN1CCN(c2nc3c(cc2F)c(=O)n(OCc2ccccc2)c(=O)n3C2CC2)CC1`, for which the melting point was 188 to 189 °C.

Regarding `CSc1ccc(CN2CC(C)(C)C(Oc3ccc(C#N)c(C(F)(F)F)c3)C2=O)cc1` (stereo unspecified), the melting point was 44.1 to 44.8 °C.

For the compound `O=C1c2c(Cl)cccc2-n2cnc(-c3cccs3)c2[C@@H]2CCCN12`, the melting point was 226 to 227 °C.

`CCc1cc(CCc2nc3ccccc3o2)c(=S)[nH]c1C`: the melting point fell in the range of 199 to 201 °C.

Turning to `CCOC(=O)N1CCN(c2ccc(O)cc2)CC1`, the melting point is 169 °C.

In turn, `Cn1cnnc1C(c1ccc(I)cc1)c1cc2c3c(c1)c(-c1cccc(Cl)c1)cc(=O)n3CC2` (stereo unspecified) came in with a melting point of 194 °C.

Compound `CCN1CCCC1CNC(=O)c1cccc(NC(=O)N2CCc3cc(SC)c(C(F)(F)F)cc32)c1` (stereo unspecified) came in with a melting point of 174 to 175 °C.

Regarding `Cc1cc(SC2=C(O)CC(CCc3ccsc3CO)(C(C)C)OC2=O)c(C(C)(C)C)cc1CO` (stereo unspecified), the melting point was in the range of 87 to 90 °C.

`CCCCCC(COc1ccc(C(=O)O)cc1)c1ccc2c(c1)OCCC2(C)C` (stereo unspecified) had a melting point of 91.5 to 93.3 °C.

In turn, `CS(=O)(=O)c1ccc(-n2nc(C(F)(F)F)cc2-c2ccc(-c3cscn3)cc2)cc1CO` returned a melting point of 203 to 205 °C.

In the case of `CCn1c2ccccc2c2c3c(ccc21)c(C=O)cn3C`, the melting point is 144 to 146 °C.

The compound `CCOC(=O)CC[C@H](NC(=O)c1ccc(NCc2cnc3nc(N)nc(N)c3c2)cc1)C(=O)OCC` showed a melting point of 262 °C.

Take `Cc1cccc(NC(=O)C(=O)OCC#CI)c1`: the melting point is 170 to 172 °C.

Consider `CC(Oc1ccc(Oc2ccc(C(F)(F)F)cc2)cc1)C(=O)N1CCCO1` (stereo unspecified), for which the melting point is 105 to 107 °C.

For the compound `N#Cc1ccc(C=NO)c([N+](=O)[O-])c1`, the melting point fell in the range of 162 to 163 °C.

In turn, `OCc1cc(Br)cc(I)c1` displayed a melting point of 110 to 112 °C.

In turn, `COC(=O)c1ccc(-c2nc(-c3ccc(C(F)(F)F)cc3)co2)cc1` gave a melting point of 182 to 183 °C.

For `Cc1nc(C#CCCc2nc3ccccc3o2)cn1C`, the melting point is 117 to 119 °C.

In turn, `COCCN1CCc2cc(Nc3ncc(Cl)c(Nc4ccc(C(N)=O)cc4OC)n3)c(OC)cc2CC1` came in with a melting point of 100 to 112 °C.

The compound `N#CCOc1cccc2onc(N)c12` came in with a melting point of 133 to 136 °C.

The compound `NNc1ccc(Cl)cc1Cl` yielded a melting point of 90 to 91 °C.

Regarding `CCN(c1nc(C)cc(C)n1)c1ccc(C(C)C)cc1SC`, the melting point lay within 64 to 66 °C.

Turning to `Clc1ccc(C(c2ccccc2)N2CCN(CCCn3cnc4ccccc43)CC2)cc1` (stereo unspecified), the melting point worked out at 106 °C.

Take `Cc1ccc(C[C@H]2NC(=O)O[C@H]2c2ccc(F)cc2)cc1OC(F)(F)C(F)F` (racemic): the melting point fell in the range of 112 to 113 °C.

`O=c1c(-c2ccc(F)cc2)c(-c2ccc(S(=O)(=O)C(F)(F)F)cc2)cnn1Cc1ccccc1` yielded a melting point of 80 to 115 °C.

Turning to `N#CN=C(NCCSCc1ccccn1)NCCSCc1ccccn1`, the melting point fell in the range of 78 to 80 °C.

`COC(=O)CCCc1cc2nc(Cl)ccc2n1S(=O)(=O)c1cccc(OC)c1` displayed a melting point of 90 °C.

For `COC(=O)CNC(=O)c1ccc(C(=O)NS(=O)(=O)c2ccc(CCNC(=O)C(C)C)cc2)cn1`, the melting point fell in the range of 197 to 199 °C.

In turn, `O=C(O)C[C@H]1CC[C@H](Cn2nc(-c3cccs3)c(Cc3cc4c(cc3Cl)OCO4)c2C(=O)O)CC1` showed a melting point of 240 °C.

The compound `O=CN[C@H]1CC[C@H](CCN2CCC(c3cccc4c3CCO4)CC2)CC1` returned a melting point of 142 °C.

`O=C1c2ccccc2C(=O)N1OCc1cnn(C(c2ccccc2)(c2ccccc2)c2ccccc2)c1` registered a melting point of 186 to 188 °C.

As to `O=[N+]([O-])c1ccc2[nH]cc(CCCBr)c2c1`, the melting point was in the range of 92 to 95 °C.

`CC(=O)Nc1ccc(OCC(O)CNC(C)(C)C)c(-c2nnco2)c1` (stereo unspecified): the melting point is 157 to 160 °C.

Take `CCOC(=O)C=CC(=O)c1ccc(Oc2ccccc2)cc1`: the melting point lay in the range of 50 to 53.5 °C.

As for `CC1CCN(S(=O)(=O)c2cc(C#N)ccc2Oc2cc(Cl)ccc2Cl)CC1`, the melting point lay in the range of 127 to 130 °C.

In the case of `COc1ccc(C)cc1NC(=O)Nc1ccc(N2CCCN(C(=O)Nc3ccc(OCCO)cc3C(F)(F)F)CC2)cc1`, the melting point fell in the range of 118 to 120 °C.

On to `COc1ccc(OC)c2c1CC1OC1C2` (stereo unspecified), for which the melting point fell in the range of 130 to 132 °C.

In turn, `O=c1[nH]ncc(NCCN2CCC(c3noc4cc(F)ccc34)CC2)c1Cl` registered a melting point of 229 to 231 °C.

For the compound `Cn1c(=O)oc2cc3c(cc21)C1(CO3)C(=O)N(CC2CCCO2)c2ccccc21` (stereo unspecified), the melting point is > 250 °C.

Take `COc1ccc(OC(=O)N2c3cc(Cl)ccc3NC(=O)[C@@H]2C)cc1`: the melting point is 187 to 190 °C.

`COC(=O)c1cccc(CN2CCN(c3nc(C)c(C(=O)NCc4ccccc4)s3)C2=O)c1` displayed a melting point of 49 to 51 °C.

The compound `c1cc(CNc2nccc3ccccc23)cc(Nc2nnc3c4c(cccc24)-c2ccccc2-3)c1` registered a melting point of 149 to 152 °C.

The compound `CCOc1nn2c(-c3ccccc3)nnc2c2ccccc12` showed a melting point of 172 to 173 °C.

`NC(=O)N1CCC(Oc2c(F)c(F)c(F)c(F)c2F)(c2ccccc2)CC1` registered a melting point of 155 to 160 °C.

`O=C(O)C(Cc1ccccc1)NCc1ccccc1` (stereo unspecified) gave a melting point of 219 to 220 °C.

In the case of `CCCCOC(=O)C(OC(=O)C(C)C)OC(=O)N1CCN(c2cc3c(cc2F)c(=O)c(C(=O)O)cn3CC)CC1` (stereo unspecified), the melting point is 152 to 160 °C.

As for `CC1(C)OC(=O)Nc2ccc(-c3cc(C#N)cs3)cc21`, the melting point fell in the range of 255 to 260 °C.

`O=C(O)c1cc(S(=O)(=O)N2CCCCC2)c(Cl)cc1Cl`: the melting point fell in the range of 200 to 205 °C.

For `O=C(Nc1cccc(SC(F)(F)F)c1)c1ccc2ccccc2c1O`, the melting point stood at 154 °C.

`Cc1nc(N)c2nc(C)n(CCOCCCc3cccnc3)c2c1C` returned a melting point of 109 to 110 °C.

In the case of `CC(C)(CNc1ccnc2cc(Cl)ccc12)NCc1c(Cl)cccc1Cl`, the melting point was 154 to 155 °C.

As to `Cc1c(NC(=O)CC(C)(C)C)c(C)c(C(C)(C)O)c2c1C(c1ccc(C(C)C)cc1)CO2` (stereo unspecified), the melting point lay in the range of 133 to 134 °C.

Compound `CC(C(=O)O)c1ccc(CC(Cl)(Cl)Cl)c(F)c1` (stereo unspecified) returned a melting point of 92 to 94 °C.

As for `Cc1cc(C)c(NC(=O)CC23CC4CC(CC(C4)C2)C3)cc1C`, the melting point amounted to 158 °C.

Regarding `CC(C)(CCCCCCCCC(C)(C)NC(=O)Cc1cc(C(C)(C)C)c(O)c(C(C)(C)C)c1)NC(=O)Cc1cc(C(C)(C)C)c(O)c(C(C)(C)C)c1`, the melting point was determined as 168 °C.

`NC(=O)C(OC(=O)c1ccccc1Cl)(C(N)=O)c1ccc(Cl)c(Cl)c1` had a melting point of 220 °C.

Turning to `Cc1ccc2c(c1)C(c1ccc(C(C)C)cc1)C(C)(C)O2` (stereo unspecified), the melting point was in the range of 65 to 66 °C.

Compound `CCCC[C@@H](NC(=O)[C@H](Cc1ccc(O)cc1)NC(=O)OC(C)(C)C)C(=O)NCC(=O)OCc1ccccc1` had a melting point of 122 °C.

In the case of `Cc1cc(-c2cc(C(F)(F)F)n3ncc(C(=O)Nc4cccc(S(=O)(=O)N5CCN(C)CC5)c4)c3n2)ccc1Cl`, the melting point is 143 °C.

`CCCc1nn(C)c2c(=O)[nH]c(-c3ccccc3OC)nc12`: the melting point is 140 to 141 °C.

`Cn1c(=O)c(-c2c(Cl)cccc2Cl)cc2cnc(NCCc3ccccn3)nc21` returned a melting point of 173 to 174 °C.

`Cn1nc(-c2c(F)cccc2Cl)nc1-c1sc(Br)c(Cl)c1Cl` returned a melting point of 178 to 180 °C.

On to `COC(=O)c1cccc(CC2COc3ccc(OCc4ccc5ccccc5n4)cc3C2O)c1` (stereo unspecified), for which the melting point lay within 153 to 154 °C.

In turn, `COC(=O)NC(C)=NS(=O)(=O)NC(C)C` gave a melting point of 193 to 196 °C.

Compound `CN1CCOc2nc(Cl)c(Cl)nc21` returned a melting point of 170 to 172 °C.

In turn, `CCc1cc2c3ccccc3c(C=O)cc2c2ccccc12` displayed a melting point of 138 to 139 °C.

`COCCn1nnc2cc3c(=O)n(C(C)Cn4nccn4)nnc3cc2c1=O` (stereo unspecified) returned a melting point of 145 to 146 °C.

`Cc1ccc(-c2ccccc2-c2nn[nH]c2C#N)cc1` yielded a melting point of 170 to 172 °C.

Take `Cc1ccc(C2C(=O)CCCC2=O)c(C)c1`: the melting point lay within 143 to 145 °C.
